From patent publication US12497386B2, “Estrogen receptor-modulating compounds” (RADIUS PHARMACEUTICALS, INC., priority 2018, dated 2025)

Test system: MCF-7 cells
Assay: MCF-7 Proliferation Inhibition Assay
Format: cell-based, human
Details: 10 pM dose of E2, 7 days incubation, CellTiterGlo viability
Protocol: Proliferation Assay in MCF-7 and T47D Cells
MCF-7 and T47D cells were stripped for 3 days in phenol red-free RPMI1640 media containing 10% charcoal-stripped fetal bovine serum (CS-FBS) and 1% Penicillin/streptomycin (P/S). Cells (volume of 90 μl/well) were seeded in 96 well plates at a density of 2500 cells/well for MCF-7 cells and 1500 cells/well for T47D cells. On the following day, plates were treated with the test compounds (10× concentration in media, volume of 10 μl/well added) both in the absence and in the presence of two doses of E2 (10 pM and 1 nM). The cells were incubated with test compounds for 7 days. The viability of the cells was assessed using CellTiterGlo (Promega, Cat #G7573) according to the manufacturer's instructions. Growth inhibition curves and IC50 values were calculated using the GraphPadPrism 6.0 software. Data values shown in Table 1 were obtained using the 10 pM dose of E2.

Structure (SMILES)	IC50 (Homo sapiens, MCF7, 168 h) [nM]	IC50 [nM]
CCNCCc1ccc(CC2=C(c3ccccc3C)CCOc3cc(O)ccc32)cc1 [Bx-07, 5-(4-(2-(Ethylamino)ethyl)benzyl)-4-(o-tolyl)-2,3-dihydrobenzo[b]oxepin-8-ol]	< 1	
CCNCCc1ccc(C2c3ccc(O)cc3CCC2c2ccc(C(C)C)cc2)cc1 (centres unmarked) [LA-31, 5-(4-(2-(Ethylamino)ethyl)phenyl)-6-(4-isopropylphenyl)-5,6,7,8-tetrahydronaphthalen-2-ol]	< 1	
Cc1ccccc1-c1c(F)c2c3cn[nH]c3ccc2n1Cc1ccc(CCNCCF)cc1 [Compound D-101, 2-Fluoro-N-(4-((8-fluoro-7-(o-tolyl)pyrrolo[3,2-e]indazol-6(3H)-yl)methyl)phenethyl)ethan-1-amine]	< 1	
COc1ccc(-c2c(F)c3cc(O)ccc3n2Cc2ccc(CCNCCF)cc2)c(C)c1 [Compound D-103, 3-Fluoro-1-(4-(2-((2-fluoroethyl)amino)ethyl)benzyl)-2-(4-methoxy-2-methylphenyl)-1H-indol-5-ol]	< 1	
CCNCCc1ccc([C@@H]2c3ccc(O)cc3CC[C@@H]2c2ccccc2C)cc1 [LA-21, (5R,6S)-5-(4-(2-(Ethylamino)ethyl)phenyl)-6-(o-tolyl)-5,6,7,8-tetrahydronaphthalen-2-ol]	< 1	
Cc1ccccc1-c1c(F)c2cc(O)ccc2n1Cc1ccc(CCNC2CC2)cc1 [Compound D-28, 1-(4-(2-(Cyclopropylamino)ethyl)benzyl)-3-fluoro-2-(o-tolyl)-1H-indol-5-ol]	< 1	
COc1ccc(-c2c(C)c3cc(O)ccc3n2Cc2ccc(CCNCC(F)(F)F)cc2)cc1 [Compound D-12, 2-(4-Methoxyphenyl)-3-methyl-1-(4-(2-((2,2,2-trifluoroethyl)amino)ethyl)benzyl)-1H-indol-5-ol]	> 10	
CCCCNCCc1ccc(Cn2c(-c3ccccc3C)c(F)c3cc(O)ccc32)cc1 [Compound D-68, 1-(4-(2-(Butylamino)ethyl)benzyl)-3-fluoro-2-(o-tolyl)-1H-indol-5-01]		< 1
CCNCCc1ccc(Cn2c(-c3ccc(OC)cc3)c(F)c3cc(O)ccc32)cc1 [Compound D-16, 1-(4-(2-(Ethylamino)ethyl)benzyl)-3-fluoro-2-(4-methoxyphenyl)-1H-indol-5-ol]	< 1	
CCCNCCc1ccc(Cn2c(-c3ccccc3C)c(F)c3cc(O)ccc32)cc1 [Compound D-67, 3-Fluoro-1-(4-(2-(propylamino)ethyl)benzyl)-2-(o-tolyl)-1H-indol-5-01]		< 1
CCNCCc1ccc(Cn2c(-c3ccc(OC)cc3)c(C)c3cc(O)ccc32)cc1 [Compound D-01, 1-(4-(2-(Ethylamino)ethyl)benzyl)-2-(4-methoxyphenyl)-3-methyl-1H-indol-5-ol]	1 to 10	
Cc1ccccc1-c1c(F)c2c3cn[nH]c3ccc2n1Cc1ccc(CCNC2CC2)cc1 [Compound D-90, N-(4-((8-Fluoro-7-(o-tolyl)pyrrolo[3,2-e]indazol-6(3H)-yl)methyl)phenethyl)cyclopropanamine]	< 1	
Cc1ccccc1-c1c(F)c2c3cn[nH]c3ccc2n1Cc1ccc(CCNC2CCC2)cc1 [Compound D-89, N-(4-((8-Fluoro-7-(o-tolyl)pyrrolo[3,2-e]indazol-6(3H)-yl)methyl)phenethyl)cyclobutanamine]	< 1	
CCCNCCc1ccc(C2c3ccc(O)cc3CCC2c2ccc(C(C)C)cc2)cc1 (centres unmarked) [LA-32, 6-(4-Isopropylphenyl)-5-(4-(2-(propylamino)ethyl)phenyl)-5,6,7,8-tetrahydronaphthalen-2-ol]	< 1	
Cc1ccccc1-c1sc2cc(O)ccc2c1Oc1ccc(CCNC2CC2)cc1 [BT-05, 3-(4-(2-(Cyclopropylamino)ethyl)phenoxy)-2-(o-tolyl)benzo[b]thiophen-6-ol]	< 1	
CCCNCCc1ccc(Cn2c(-c3ccccc3C)c(F)c3c4cn[nH]c4ccc32)cc1 [Compound D-91, N-(4-((8-fluoro-7-(o-tolyl)pyrrolo[3,2-e]indazol-6(3H)-yl)methyl)phenethyl)propan-1-amine]	< 1	
Cc1ccccc1-c1c(F)c2cc(O)ccc2n1Cc1ccc(CC(C)NC2CC2)cc1 [Compound D-32, 1-(4-(2-(Cyclopropylamino)propyl)benzyl)-3-fluoro-2-(o-tolyl)-1H-indol-5-ol]	< 1	

Now from value to compound:

IC50 (Homo sapiens, MCF7, 168 h) [nM]	IC50 [nM]	Structure (SMILES)
< 1		CCNCCc1ccc(Cn2c(-c3ccccc3C(F)(F)F)c(F)c3cc(O)ccc32)cc1 [Compound D-34, 1-(4-(2-(Ethylamino)ethyl)benzyl)-3-fluoro-2-(2-(trifluoromethyl)phenyl)-1H-indol-5-ol]
< 1		CCCNCCc1ccc(Cn2c(-c3ccccc3OC)c(F)c3cc(O)ccc32)cc1 [Compound D-87, 3-Fluoro-2-(2-methoxyphenyl)-1-(4-(2-(propylamino)ethyl)benzyl)-1H-indol-5-ol]
1 to 10		CCNCCc1ccc(Cn2c(-c3ccc(OC)cc3)c(Cl)c3cc(O)ccc32)cc1 [Compound D-13, 3-Chloro-1-(4-(2-(ethylamino)ethyl)benzyl)-2-(4-methoxyphenyl)-1H-indol-5-ol]
< 1		CCCNCCc1ccc(Cn2c(-c3ccc(OC)cc3C)c(F)c3cc(O)ccc32)cc1 [Compound D-96, 3-Fluoro-2-(4-methoxy-2-methylphenyl)-1-(4-(2-(propylamino)ethyl)benzyl)-1H-indol-5-ol]
< 1		CCNCCc1ccc(Cn2c(-c3ccccc3C)c(F)c3cc(O)ccc32)cc1 [Compound D-29, 1-(4-(2-(Ethylamino)ethyl)benzyl)-3-fluoro-2-(o-tolyl)-1H-indol-5-ol]
1 to 10		COc1ccc(-c2c(C)c3cc(O)ccc3n2Cc2ccc(CCNCC3CC3)cc2)cc1 [Compound D-03, 1-(4-(2-((Cyclopropylmethyl)amino)ethyl)benzyl)-2-(4-methoxyphenyl)-3-methyl-1H-indol-5-ol]
< 1		Oc1ccc2c(c1)CC[C@H](c1ccccc1)[C@@H]2c1ccc(CCNCC2CC2)cc1 [LA-19, (5R,6S)-5-(4-(2-((Cyclopropylmethyl)amino)ethyl)phenyl)-6-phenyl-5,6,7,8-tetrahydronaphthalen-2-ol]
< 1		Oc1ccc2c(c1)c(F)c(-c1ccccc1Cl)n2Cc1ccc(CCNC2CC2)cc1 [Compound D-37, 2-(2-Chlorophenyl)-1-(4-(2-(cyclopropylamino)ethyl)benzyl)-3-fluoro-1H-indol-5-ol]
< 1		CCNCCc1ccc(Cn2c(-c3ccccc3C)c(F)c3c4cn[nH]c4ccc32)cc1 [Compound D-85, N-Ethyl-2-(4-((8-fluoro-7-(o-tolyl)pyrrolo[3,2-e]indazol-6(3H)-yl)methyl)phenyl)ethan-1-amine]
< 1		Cc1ccccc1-c1c(F)c2cc(O)ccc2n1Cc1ccc(CCNCCF)cc1 [Compound D-70, 3-Fluoro-1-(4-(2-((2-fluoroethyl)amino)ethyl)benzyl)-2-(o-tolyl)-1H-indol-5-ol]
< 1		CCCNCCc1ccc(Cn2c(-c3ccccc3-c3ccccc3)c(F)c3cc(O)ccc32)cc1 [Compound D-66, 2-([1,1′-Biphenyl]-2-yl)-3-fluoro-1-(4-(2-(propylamino)ethyl)benzyl)-1H-indol-5-ol]
< 1		CCCN1CC(=Cc2ccc(Oc3c(-c4ccccc4C)sc4cc(O)ccc34)cc2)C1 [BT-17, 3-(4-((1-Propylazetidin-3-ylidene)methyl)phenoxy)-2-(o-tolyl)benzo[b]thiophen-6-ol]
